Source: ChEMBL document CHEMBL5108025, “New thiazole-based derivatives as EGFR/HER2 and DHFR inhibitors: Synthesis, molecular modeling simulations and anticancer activity” (Eur J Med Chem, 2022)
Active and inactive are the calls of the source. The rule behind the calls is not given here.

Experiments:
[1] = test system: HCT-116; test: cells; conditions: Homo sapiens, HCT-116, 72 h
Description: Antiproliferative activity against human HCT-116 cells after 72 hrs by MTT assay

[2] = test system: MCF7; test: Induction of necrosis in human MCF7 cells assessed as necrotic cells level measured by propidium iodide/RNAse staining based flow cytometry analysis (reference value: 0.9%); type: functional
[3] = biological target: T1, Dihydrofolate reductase (Homo sapiens, UniProt P00374); test: Inhibition of recombinant human DHFR expressed in Escherichia coli incubated for 15 mins and measured by ELISA
T1 sequence (P00374 whole entry): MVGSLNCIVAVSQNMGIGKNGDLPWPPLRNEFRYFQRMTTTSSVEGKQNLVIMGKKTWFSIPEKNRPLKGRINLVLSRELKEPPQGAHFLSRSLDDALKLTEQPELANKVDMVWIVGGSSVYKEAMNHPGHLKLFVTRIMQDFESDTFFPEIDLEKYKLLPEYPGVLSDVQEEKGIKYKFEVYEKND

[4] = Toxicity in 7,12-dimethylbenz [a]anthracene-induced non-lactating mammary glands solid tumor model of female Swiss albino mouse assessed as reduction in body weight at 10 mg/kg, ip; type: organism-based; set-up: scale not given: the % may be the effect or the level left; conditions: in vivo
[5] = Antitumor activity in 7,12-dimethylbenz [a]anthracene-induced non-lactating mammary glands solid tumor model of female Swiss albino mouse assessed as reduction in tumor volume at 10 mg/kg, ip; type: functional; set-up: scale not given: the % may be the effect or the level left
[6] = test system: HeLa; test: Antiproliferative activity against human HeLa cells after 72 hrs by MTT assay; type: functional, cell-based
[7] = test system: MCF7; test: Induction of cell cycle arrest in human MCF7 cells assessed as decrease in DNA content at G2/M phase measured by propidium iodide/RNAse staining based flow cytometry analysis (reference value: 13.4%); type: functional; set-up: scale not given: the % may be the effect or the level left
[8] = test system: MCF7; test: Induction of cell cycle arrest in human MCF7 cells assessed as increase in DNA content at G0/G1 phase measured by propidium iodide/RNAse staining based flow cytometry analysis (reference value: 57.82%); type: functional
[9] = test system: MCF7; test: cells; conditions: Homo sapiens, MCF7, 72 h
[10] = test system: PC-3; test: Antiproliferative activity against human PC-3 cells after 72 hrs by MTT assay; type: functional, cell-based; conditions: PC-3, 72 h
[11] = test system: Breast carcinoma cell; test: Induction of apoptosis in human breast cancer cells assessed as normalization of caspase-3 expression measured as caspase-3 score; type: functional, Breast cancer cell line
[12] = biological target: Receptor tyrosine-protein kinase erbB-2 (Homo sapiens, UniProt P04626); test: Inhibition of recombinant human HER2 incubated for 40 to 45 mins and measured after 15 mins by Kinase-Glo Max assay
[13] = Antitumor activity in 7,12-dimethylbenz [a]anthracene-induced non-lactating mammary glands solid tumor model of female Swiss albino mouse assessed as mean tumor volume at 10 mg/kg, ip; type: functional
[14] = Toxicity in 7,12-dimethylbenz [a]anthracene-induced non-lactating mammary glands solid tumor model of female Swiss albino mouse assessed as mean body weight at 10 mg/kg, ip; type: organism-based; conditions: in vivo
[15] = test system: MCF7; test: Induction of apoptosis in human MCF7 cells assessed as total apoptotic cells level measured by propidium iodide/RNAse staining based flow cytometry analysis (reference value: 0.73%); type: functional
[16] = test system: MCF7; test: Induction of apoptosis in human MCF7 cells assessed as late apoptotic cells level measured by propidium iodide/RNAse staining based flow cytometry analysis (reference value: 0.22%); type: functional
[17] = biological target: Epidermal growth factor receptor (Homo sapiens, UniProt P00533)
Description: Inhibition of recombinant human EGFR incubated for 40 to 45 mins and measured after 15 mins by Kinase-Glo Max assay

[18] = test system: WI-38; test: Antiproliferative activity against human WI-38 cells after 72 hrs by MTT assay; type: functional, cell-based; conditions: WI-38, 72 h
[19] = test system: MCF7; test: Induction of apoptosis in human MCF7 cells assessed as early apoptotic cells level measured by propidium iodide/RNAse staining based flow cytometry analysis (reference value: […]); type: functional
[20] = test system: Breast cancer cell line; test: Antitumor activity in 7,12-dimethylbenz [a]anthracene-induced non-lactating mammary glands solid tumor model of female Swiss albino mouse assessed as absence of ductal carcinoma in mammary gland at 10 mg/kg, ip measured by H and E staining method; type: functional, organism-based
[21] = test system: HepG2; test: cells; conditions: Homo sapiens, HepG2, 72 h
[22] = test system: MCF7; test: Induction of cell cycle arrest in human MCF7 cells assessed as increase in DNA content at S phase measured by propidium iodide/RNAse staining based flow cytometry analysis (reference value: […]%); type: functional
[23] = Antitumor activity in 7,12-dimethylbenz [a]anthracene-induced non-lactating mammary glands solid tumor model of female Swiss albino mouse assessed as reduction in tumor volume at 2 mg/kg, ip; type: functional; set-up: scale not given: the % may be the effect or the level left
[24] = Toxicity in 7,12-dimethylbenz [a]anthracene-induced non-lactating mammary glands solid tumor model of female Swiss albino mouse assessed as mean body weight at 2 mg/kg, ip; type: organism-based; conditions: in vivo
[25] = Toxicity in 7,12-dimethylbenz [a]anthracene-induced non-lactating mammary glands solid tumor model of female Swiss albino mouse assessed as reduction in body weight at 2 mg/kg, ip; type: organism-based; set-up: scale not given: the % may be the effect or the level left; conditions: in vivo
[26] = Antitumor activity in 7,12-dimethylbenz [a]anthracene-induced non-lactating mammary glands solid tumor model of female Swiss albino mouse assessed as mean tumor volume at 2 mg/kg, ip; type: functional

Chain of Receptor tyrosine-protein kinase erbB-2 (P04626 whole entry): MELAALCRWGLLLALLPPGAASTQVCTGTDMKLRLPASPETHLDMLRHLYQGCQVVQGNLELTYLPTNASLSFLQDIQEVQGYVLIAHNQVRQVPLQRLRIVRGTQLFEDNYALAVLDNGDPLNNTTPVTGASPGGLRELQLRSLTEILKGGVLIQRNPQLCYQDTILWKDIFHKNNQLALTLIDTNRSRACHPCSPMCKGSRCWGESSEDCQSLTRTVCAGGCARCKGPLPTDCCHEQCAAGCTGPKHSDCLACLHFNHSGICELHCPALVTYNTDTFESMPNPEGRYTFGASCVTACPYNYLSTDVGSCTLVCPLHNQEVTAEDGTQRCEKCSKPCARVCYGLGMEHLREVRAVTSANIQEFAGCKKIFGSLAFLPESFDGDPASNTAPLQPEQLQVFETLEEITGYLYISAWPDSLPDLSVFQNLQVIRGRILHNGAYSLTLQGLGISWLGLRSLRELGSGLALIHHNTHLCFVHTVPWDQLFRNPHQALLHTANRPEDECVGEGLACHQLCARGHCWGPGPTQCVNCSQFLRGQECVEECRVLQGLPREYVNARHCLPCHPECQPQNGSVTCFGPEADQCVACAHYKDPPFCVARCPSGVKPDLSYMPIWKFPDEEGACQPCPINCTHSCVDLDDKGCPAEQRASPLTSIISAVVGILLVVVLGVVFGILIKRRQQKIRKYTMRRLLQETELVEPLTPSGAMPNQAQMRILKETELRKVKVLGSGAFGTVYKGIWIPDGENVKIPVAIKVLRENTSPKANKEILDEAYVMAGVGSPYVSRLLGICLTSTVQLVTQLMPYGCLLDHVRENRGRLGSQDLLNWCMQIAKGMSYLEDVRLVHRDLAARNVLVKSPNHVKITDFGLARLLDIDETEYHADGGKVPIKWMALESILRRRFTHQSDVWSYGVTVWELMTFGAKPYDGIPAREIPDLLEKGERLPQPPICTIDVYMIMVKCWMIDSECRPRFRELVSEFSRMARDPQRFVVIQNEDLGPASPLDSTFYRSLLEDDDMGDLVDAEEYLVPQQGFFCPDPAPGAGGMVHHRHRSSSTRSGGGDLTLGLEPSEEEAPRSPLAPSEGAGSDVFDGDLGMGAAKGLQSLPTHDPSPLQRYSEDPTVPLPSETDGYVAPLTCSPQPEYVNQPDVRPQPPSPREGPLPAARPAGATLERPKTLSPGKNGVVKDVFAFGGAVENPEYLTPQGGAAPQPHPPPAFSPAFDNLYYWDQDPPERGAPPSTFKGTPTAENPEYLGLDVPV
Chain of Epidermal growth factor receptor (P00533 whole entry): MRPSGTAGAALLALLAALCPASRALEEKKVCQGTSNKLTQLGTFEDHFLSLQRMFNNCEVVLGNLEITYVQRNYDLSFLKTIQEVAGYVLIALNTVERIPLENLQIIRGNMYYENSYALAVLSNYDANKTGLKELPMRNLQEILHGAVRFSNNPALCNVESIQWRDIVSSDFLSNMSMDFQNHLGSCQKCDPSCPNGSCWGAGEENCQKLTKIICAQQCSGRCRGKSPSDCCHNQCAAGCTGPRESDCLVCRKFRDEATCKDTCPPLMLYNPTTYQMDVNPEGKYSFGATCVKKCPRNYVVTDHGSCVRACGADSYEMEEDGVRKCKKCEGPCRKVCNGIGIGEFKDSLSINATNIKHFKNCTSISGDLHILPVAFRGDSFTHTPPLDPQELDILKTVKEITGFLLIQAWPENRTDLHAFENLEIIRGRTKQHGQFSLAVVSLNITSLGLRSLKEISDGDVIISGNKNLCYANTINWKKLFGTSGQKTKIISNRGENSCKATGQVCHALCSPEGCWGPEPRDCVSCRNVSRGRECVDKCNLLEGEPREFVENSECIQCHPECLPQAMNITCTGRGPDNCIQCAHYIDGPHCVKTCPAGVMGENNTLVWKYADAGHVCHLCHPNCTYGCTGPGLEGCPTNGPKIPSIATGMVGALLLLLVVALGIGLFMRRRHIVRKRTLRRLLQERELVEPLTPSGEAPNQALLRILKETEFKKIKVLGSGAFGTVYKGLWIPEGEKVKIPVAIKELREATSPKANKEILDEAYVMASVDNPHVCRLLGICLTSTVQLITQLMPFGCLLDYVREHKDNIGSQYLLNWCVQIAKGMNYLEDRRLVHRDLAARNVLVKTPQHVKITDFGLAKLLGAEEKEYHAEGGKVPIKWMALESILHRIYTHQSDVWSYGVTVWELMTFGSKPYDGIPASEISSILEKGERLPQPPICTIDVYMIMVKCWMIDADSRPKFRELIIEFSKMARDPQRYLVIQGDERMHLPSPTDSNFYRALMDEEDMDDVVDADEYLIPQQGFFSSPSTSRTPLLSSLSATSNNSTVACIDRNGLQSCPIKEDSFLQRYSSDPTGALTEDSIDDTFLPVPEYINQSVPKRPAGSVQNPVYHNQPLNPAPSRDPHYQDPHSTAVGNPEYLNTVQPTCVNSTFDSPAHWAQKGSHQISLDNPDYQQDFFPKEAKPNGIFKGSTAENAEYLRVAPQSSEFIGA

Question: For `COc1ccc(-c2c(CN3CCOCC3)nc3scc(C(=O)NN)n23)cc1`, which IC50 [1] is on record?
Answer: Its IC50 is 16.2 µM.

Question: And the Activity [2]?
Answer: Its Activity is 3.25%.

Question: And the IC50 [3]?
Answer: The IC50 was 0.585 µM.

Question: And the Activity [4]?
Answer: Its Activity is 7.4%.

Question: What about the Activity [5] of the same molecule?
Answer: The Activity was 65.3%.

Question: What about the IC50 [6] of the same molecule?
Answer: The IC50 was 9.43 µM.

Question: What about the Activity [7] of the same molecule?
Answer: Its Activity is 10.26%.

Question: What about the Activity [8] of the same molecule?
Answer: The Activity was 64.25%.

Question: What about the IC50 [9] of the same molecule?
Answer: The IC50 was 2.37 µM.

Question: What about the IC50 [10] of the same molecule?
Answer: Its IC50 is 18.4 µM.

Question: And the Activity [11]?
Answer: Its Activity is 1.17.

Question: What about the IC50 [12] of the same molecule?
Answer: The IC50 was 0.078 µM.

Question: What about the Activity [13] of the same molecule?
Answer: Its Activity is 1.098 mm3.

Question: What about the Activity [14] of the same molecule?
Answer: The Activity was 35.2 g.

Question: And the Activity [15]?
Answer: Its Activity is 35.46%.

Question: And the Activity [16]?
Answer: Its Activity is 22.19%.

Question: What about the IC50 [17] of the same molecule?
Answer: Its IC50 is 0.122 µM.

Question: And the IC50 [18]?
Answer: The IC50 was 36.8 µM.

Question: What about the Activity [19] of the same molecule?
Answer: Its Activity is 13.27%.

Question: And the Activity [20]?
Answer: The Activity was “Active”.

Question: What about the IC50 [21] of the same molecule?
Answer: The IC50 was 12.2 µM.

Question: What about the Activity [22] of the same molecule?
Answer: Its Activity is 25.49%.

Question: Which IC50 [1] does the source give for `CC(=O)NNC(=O)c1csc2ncc(-c3ccc(Br)cc3)n12` here?
Answer: Its IC50 is 6.08 µM.

Question: What about the Activity [2] of the same molecule?
Answer: Its Activity is 6.72%.

Question: What about the IC50 [3] of the same molecule?
Answer: Its IC50 is 0.291 µM.

Question: What about the Activity [4] of the same molecule?
Answer: The Activity was 17.4%.

Question: And the Activity [5]?
Answer: Its Activity is 76.5%.

Question: And the IC50 [6]?
Answer: The IC50 was 4.78 µM.

Question: What about the Activity [7] of the same molecule?
Answer: Its Activity is 5.24%.

Question: What about the Activity [8] of the same molecule?
Answer: The Activity was 62.61%.

Question: What about the IC50 [9] of the same molecule?
Answer: The IC50 was 1.83 µM.

Question: And the IC50 [10]?
Answer: Its IC50 is 12.7 µM.

Question: What about the Activity [11] of the same molecule?
Answer: The Activity was 1.33.

Question: What about the IC50 [12] of the same molecule?
Answer: The IC50 was 0.108 µM.

Question: And the Activity [13]?
Answer: The Activity was 0.742 mm3.

Question: And the Activity [14]?
Answer: The Activity was 31.4 g.

Question: And the Activity [15]?
Answer: The Activity was 37.67%.

Question: And the Activity [16]?
Answer: The Activity was 28.04%.

Question: And the IC50 [17]?
Answer: Its IC50 is 0.153 µM.

Question: And the IC50 [18]?
Answer: The IC50 was 54.2 µM.

Question: And the Activity [19]?
Answer: Its Activity is 9.63%.

Question: What about the Activity [20] of the same molecule?
Answer: Its Activity is “Active”.

Question: What about the IC50 [21] of the same molecule?
Answer: Its IC50 is 3.48 µM.

Question: What about the Activity [22] of the same molecule?
Answer: The Activity was 32.15%.

Question: What does the source list for `COc1cccc2c1C(=O)c1c(O)c3c(c(O)c1C2=O)C[C@@](O)(C(=O)CO)C[C@@H]3O[C@H]1C[C@H](N)[C@H](O)[C@H](C)O1` [DOXORUBICIN]?
Answer: Activity [23]: 80.4%; IC50 [6]: 8.87 µM; Activity [24]: 29 g; Activity [25]: 23.7%; IC50 [10]: 8.54 µM; Activity [11]: 1.5; Activity [26]: 0.62 mm3
